{"source": "paper PMC10244169", "about": "“Psychedelics promote plasticity by directly binding to BDNF receptor TrkB” (Nature Neuroscience, 2023)", "key": {"[1]": {"biological_target": "T1, TrkB (Rattus norvegicus, UniProt Q63604)", "T1 construct": "expressed in transfected cells; host or cells: HEK293T", "experiment": "biochemical", "format": "binding"}, "[2]": {"biological_target": "T2, TrkB (WT) dimerization (Rattus norvegicus, UniProt Q63604)", "T2 construct": "expressed in transfected cells; host or cells: N2a", "experiment": "Split-luciferase PCA of TrkB dimerization in N2a cells", "format": "cell-based", "conditions": "for TrkB dimerization (PCA), group mean (vehicle = 100): WT", "in_short": "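N2a cells transiently co-transfected with split hGLuc-tagged rat TrkB pairs (WT/WT or Y433F/WT) for dimerization; Ketanserin, M100907 or TRKB.FC added 10 min before treatment. Luminescence read after injection of native coelenterazine ([…] final).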"}, "[3]": {"system": "dendritic arbor complexity of neuronal cultures", "experiment": "Dendritogenesis (Sholl analysis) in neuronal cultures (WT and Y433F^+/−)", "format": "cell-based, mouse", "conditions": "for Sholl analysis, Mean at distance from soma: fig 6h", "in_short": "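Some cultures were pretreated 10 min with TrkB.FC (200 ng ml^−1) or M100907 (100 nM), which stayed in the medium alongside cumulative psychedelic doses. Sholl analysis counted dendritic intersections every 5 μm from the soma.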"}}, "data": [{"smiles": "CN(C)CCc1c[nH]c2cccc(O)c12", "note": "[PSI, psilocin]", "values": [{"measurement": "Ki", "setting": "[1]", "result": "6.73 ± 3.05", "unit": "nM"}, {"measurement": "Bmax (best-fit, 1b)", "setting": "[1]; competition with ^3H-LSD", "result": 100.9}, {"measurement": "h (best-fit, 1b)", "setting": "[1]; competition with ^3H-LSD", "result": -0.492}, {"measurement": "affinity to TrkB relative to other antidepressants (fluoxetine, ketamine)", "setting": "[1]; higher than other antidepressants", "result": "1,000 fold"}, {"measurement": "TrkB dimerization", "setting": "[2]; WT TrkB, N2a cells, 1 nM to 1 µM", "result": "fast and long-lasting increase in dimerization"}, {"measurement": "TrkB dimerization (PCA), group mean (vehicle = 100)", "setting": "[2]; 1nM", "result": 146}, {"measurement": "TrkB dimerization (PCA), group mean (vehicle = 100)", "setting": "[2]; 10nM", "result": 133.7}, {"measurement": "TrkB dimerization (PCA), group mean (vehicle = 100)", "setting": "[2]; 100nM", "result": 150.6}, {"measurement": "TrkB dimerization (PCA), group mean (vehicle = 100)", "setting": "[2]; 1uM", "result": 166.1}, {"measurement": "6g: Mean (dendritogenesis, Sholl analysis)", "setting": "[3]; WT neurons, vehicle mean 32.96", "result": 62.5}, {"measurement": "6g: Mean Diff. (vehicle vs. treatment), Bonferroni's multiple comparisons test", "setting": "[3]; WT:vehicle minus WT:treatment", "result": -29.54}, {"measurement": "6g: Mean (dendritogenesis, Sholl analysis)", "setting": "[3]; Y433F+/- neurons, vehicle mean 44.44", "result": 31.05}, {"measurement": "6g: Mean Diff. (vehicle vs. treatment), Bonferroni's multiple comparisons test", "setting": "[3]; Y433F+/-:vehicle minus Y433F+/-:treatment", "result": 13.39}, {"measurement": "dendritic arbor complexity", "setting": "[3]; cultures from WT mice", "result": "enhance dendritic arbor complexity"}, {"measurement": "dendritic arbor complexity", "setting": "[3]; cultures from Y433F^+/− mice", "result": "not Y433F^+/− mice"}, {"measurement": "Sholl analysis, Mean at distance from soma", "setting": "[3]; distance from soma 25 µm", "result": 3.05}, {"measurement": "Sholl analysis, Mean at distance from soma", "setting": "[3]; distance from soma 30 µm", "result": 2.75}, {"measurement": "Sholl analysis, Mean at distance from soma", "setting": "[3]; distance from soma 35 µm", "result": 2.15}, {"measurement": "Sholl analysis, Mean at distance from soma", "setting": "[3]; distance from soma 40 µm", "result": 1.55}, {"measurement": "Sholl analysis, Mean at distance from soma", "setting": "[3]; distance from soma 45 µm", "result": 1.35}, {"measurement": "Sholl analysis, Mean at distance from soma", "setting": "[3]; distance from soma 50 µm", "result": 1.3}, {"measurement": "Sholl analysis, Mean at distance from soma", "setting": "[3]; distance from soma 55 µm", "result": 0.95}, {"measurement": "Sholl analysis, Mean at distance from soma", "setting": "[3]; distance from soma 60 µm", "result": 0.8}, {"measurement": "Sholl analysis, Mean at distance from soma", "setting": "[3]; distance from soma 65 µm", "result": 0.75}, {"measurement": "Sholl analysis, Mean at distance from soma", "setting": "[3]; distance from soma 70 µm", "result": 0.7}, {"measurement": "Sholl analysis, Mean at distance from soma", "setting": "[3]; distance from soma 75 µm", "result": 0.55}, {"measurement": "Sholl analysis, Mean at distance from soma", "setting": "[3]; distance from soma 80 µm", "result": 0.45}, {"measurement": "Sholl analysis, Mean at distance from soma", "setting": "[3]; distance from soma 85 µm", "result": 0.45}, {"measurement": "Sholl analysis, Mean at distance from soma", "setting": "[3]; distance from soma 90 µm", "result": 0.4}, {"measurement": "Sholl analysis, Mean at distance from soma", "setting": "[3]; distance from soma 95 µm", "result": 0.65}, {"measurement": "Sholl analysis, Mean at distance from soma", "setting": "[3]; distance from soma 100 µm", "result": 0.55}, {"measurement": "6h: Mean (Sholl analysis)", "setting": "[3]; first 6h table (N as WT), distance from soma 10 µm", "result": 6}, {"measurement": "6h: Mean (Sholl analysis)", "setting": "[3]; first 6h table (N as WT), distance from soma 15 µm", "result": 7.15}, {"measurement": "6h: Mean (Sholl analysis)", "setting": "[3]; first 6h table (N as WT), distance from soma 20 µm", "result": 7.85}, {"measurement": "6h: Mean (Sholl analysis)", "setting": "[3]; first 6h table (N as WT), distance from soma 25 µm", "result": 6.65}, {"measurement": "6h: Mean (Sholl analysis)", "setting": "[3]; first 6h table (N as WT), distance from soma 30 µm", "result": 5.65}, {"measurement": "6h: Mean (Sholl analysis)", "setting": "[3]; first 6h table (N as WT), distance from soma 35 µm", "result": 4.5}, {"measurement": "6h: Mean (Sholl analysis)", "setting": "[3]; first 6h table (N as WT), distance from soma 40 µm", "result": 3.6}, {"measurement": "6h: Mean (Sholl analysis)", "setting": "[3]; first 6h table (N as WT), distance from soma 45 µm", "result": 2.75}, {"measurement": "6h: Mean (Sholl analysis)", "setting": "[3]; first 6h table (N as WT), distance from soma 50 µm", "result": 2.6}, {"measurement": "6h: Mean (Sholl analysis)", "setting": "[3]; first 6h table (N as WT), distance from soma 55 µm", "result": 2.5}, {"measurement": "6h: Mean (Sholl analysis)", "setting": "[3]; first 6h table (N as WT), distance from soma 60 µm", "result": 2.35}, {"measurement": "6h: Mean (Sholl analysis)", "setting": "[3]; first 6h table (N as WT), distance from soma 65 µm", "result": 1.75}, {"measurement": "6h: Mean (Sholl analysis)", "setting": "[3]; first 6h table (N as WT), distance from soma 70 µm", "result": 1.7}, {"measurement": "6h: Mean (Sholl analysis)", "setting": "[3]; first 6h table (N as WT), distance from soma 75 µm", "result": 1.35}, {"measurement": "6h: Mean (Sholl analysis)", "setting": "[3]; first 6h table (N as WT), distance from soma 80 µm", "result": 1.15}, {"measurement": "6h: Mean (Sholl analysis)", "setting": "[3]; first 6h table (N as WT), distance from soma 85 µm", "result": 1.1}, {"measurement": "6h: Mean (Sholl analysis)", "setting": "[3]; first 6h table (N as WT), distance from soma 90 µm", "result": 1.3}, {"measurement": "6h: Mean (Sholl analysis)", "setting": "[3]; first 6h table (N as WT), distance from soma 95 µm", "result": 1.05}, {"measurement": "6h: Mean (Sholl analysis)", "setting": "[3]; first 6h table (N as WT), distance from soma 100 µm", "result": 1.5}, {"measurement": "6h: Mean (Sholl analysis)", "setting": "[3]; second 6h table (N as Y433F), distance from soma 10 µm", "result": 4.8}, {"measurement": "6h: Mean (Sholl analysis)", "setting": "[3]; second 6h table (N as Y433F), distance from soma 15 µm", "result": 4.05}, {"measurement": "6h: Mean (Sholl analysis)", "setting": "[3]; second 6h table (N as Y433F), distance from soma 20 µm", "result": 3.8}]}]}
